A short description of data set [1]: Solubilizing paclitaxel in GRAS essential oils. The class given is physicochemical.
The nature of data set [2]: Solubility of paclitaxel in eugenol and in egg phosphatidylcholine/eugenol/water mixture. The class given is physicochemical. The source says:
The solubility of a given active in a mixture of hydrophobe and lipid is typically a very strongly increasing function of an increasing hydrophobe:lipid ratio, because the hydrophobe can generally be chosen specifically for its ability to solubilize the particular active whereas the choice of lipid has much more to do with its ability to form liquid crystals (in the presence of the hydrophobe, in particular).

With `CC(=O)O[C@H]1C(=O)[C@@]2(C)[C@H]([C@H](OC(=O)c3ccccc3)[C@]3(O)C[C@H](OC(=O)[C@H](O)[C@@H](NC(=O)c4ccccc4)c4ccccc4)C(C)=C1C3(C)C)[C@]1(OC(C)=O)CO[C@@H]1C[C@@H]2O` [Paclitaxel], the “Paclitaxel solubility (w/w, approx)” value in data set [1] (in essential oil: Oil of bay) is approximately 16% w/w; in data set [1] (in essential oil: Sweet basil), approximately 7% w/w; in data set [1] (in essential oil: Thyme), approximately 10% w/w. Also, the “solubility in lipid/eugenol/water mixture” value in data set [2] (in a mixture of 42% egg phosphatidylcholine, 35% eugenol, and 23% water) is reported as “less than 1.5%”. Besides, in data set [2] (in eugenol), the solubility in eugenol result is listed as “over 15 % by weight”.
